The results in this text go back to patent US5369096A, “Glycolipid derivatives” (The Nisshin Oil Mills, Ltd., priority 1992, dated 1994).

What all share (type): cell-based
For experiment [1], the system named is Colo 201 cancer cells adhering to vascular endothelial cells of the normal human umbilical cord. The experiment is described as follows: inhibition of adhesion of Colo 201 cancer cells to rhIL1β-stimulated vascular endothelial cells, liposome dispersion. To be noted: 11.8 μM equivalent; for Amount of Colo 201 cells adhered (fluorescence intensity): rhIL1β 200 U/ml, 485 nm. The method, then: A solution of 200 μg of phosphatidylcholine, 100 μg of cholesterol, 7.5 μg of dicetyl phosphate and 50 μg of a compound of the invention in a mixture of chloroform/methanol=2/1 (ca. 1 ml) was evaporated under reduced pressure to dryness followed by addition of 0.25 ml of a phosphate-buffered saline solution. The mixture was ultrasonicated (an output of 90 watts) for 5 min. and stirred (a vortex mixer) for 5 min. to form a liposome dispersion.
% Inhibition of adhesion=100-[(fluorescence intensity for rhIL1β-treated group+compound-free or a compound-containing liposome dispersion-treated group)-(fluorescence intensity for rhIL1β-untreated group)/(fluorescence intensity for rhIL1β-treated group-fluorescence intensity for rhIL1β-untreatedgroup)]×100
Vascular endothelial cells of the normal human umbilical cord grown to confluence were stimulated in 24-well plates with 200 U/ml of rhIL1β at 37° C. for 4 hours. After removal of the supernatant by suction liposome dispersions each prepared from 2→3 sialyl Le^x or a compound of the invention in an amount of 11.8 μM equivalent were added except for the rhIL1β-untreated and treated groups. The mixtures were then allowed to react at room temperature for 30 min. Subsequently, colon carcinoma cell line Colo 201 with 2',7'-bis-(carboxyethyl)-5,6-carboxyfluorescene acetoxymethyl ester fluorescent dye enclosed was added at a level of 1×10^6 cells per well followed by centrifugal operation at 100 rpm for 20 min. Each well was washed three times followed by addition of 0.5 ml of 0.5% Triton X-100 and stirring. The contents were divided into 100 μl portions in 96-well plates and measurement was made on a Baxter fluorometer at 485 nm.
4: rhIL1β-treated group+2→3 sialyl Le^x -containing liposome dispersion-treated group
5: rhIL1β-treated group+compound 5E-containing liposome dispersion-treated group (OEG)*
6: rhIL1β-treated group+compound 5A-containing liposome dispersion-treated group (2EG)
7: rhIL1β-treated group+compound 5B-containing liposome dispersion-treated group (3EG)
8: rhIL1β-treated group+compound 5C-containing liposome dispersion-treated group (4EG)
9: rhIL1β-treated group+compound 5D-containing liposome dispersion-treated group (5EG)
* OEG represents a control compound containing no CH2 CH2 O unit. The same shall apply hereinafter.
Amount adhered and % inhibition of adhesion of Colo 201 cancer cells as measured from fluorescence intensity are shown in Table 2 below.

Experiment [2] concerns human normal lymphocytes adhering to vascular endothelial cells of the normal human umbilical cord. The experiment is described as follows: inhibition of adhesion of human normal lymphocytes to rhIL1β-stimulated vascular endothelial cells, oily emulsion. To be noted: 20 μg/ml equivalent; for Amount adhered (fluorescence intensity): rhIL1β 200 U/ml, 485 nm/535 nm. The method, then: (§1) A mixed solution of 6 mg of egg yolk lecithin (manufactured by Nacalaitesque Inc.), 30 μl of soybean oil J. P. (manufactured by Yoshida Seiyaku), 470 μl of distilled water for injection (manufacturedby Otsuka Seiyaku) and 125 μg of a compound of the invention was ultrasonicated (an output of 90 watts) for 10 min. to prepare an oily emulsion. The oily emulsion was further passed through a polycarbonate membrane filter having 0.2 μm average pore diameter (manufactured by Millipore) to provide an average particle size of 0.2 μm.
Vascular endothelial cells of the normal human umbilical cord grown to confluence were stimulated in 24-well plates with 200 U/ml of rhIL1ββat 37° C. for 4 hours. After removal of the supernatant by suction, oily emulsions each prepared from a compound of the invention in an amount of 20 μg/ml equivalent were added except for the rhIL1β-untreated (Sample 1) and treated groups (Samples 2 and 3). The mixtures were then allowed to react at room temperature for 30 min. Subsequently, human normal lymphocytes with 2',7'-bis(carboxyethyl)-5,6-carboxyfluorescence acetoxymethyl ester fluorescent dye enclosed was added at a level of 2×10^6 cells per well followed by centrifugal operation at 100 rpm for 20 min. Each well was washed three times followed by addition of 0.5 ml of 0.5% Triton X-100 and stirring. The contents were divided into 100 μl portions in 96-well plates and measurement was made on a Baxter fluorometer at 485 nm/535 nm.
4: rhIL1β-treated group+2→3 sialyl Lewis X-containing oily emulsion dispersion-treated group
5: rhIL1β-treated group+compound 5E-containing oily emulsion dispersion-treated group (OEG)
(§2) 6: rhIL1β-treated group+compound 5A-containing oily emulsion dispersion-treated group (2EG)
(§3) 7: rhIL1β-treated group+compound 5B-containing oily emulsion dispersion-treated group (3EG)
(§4) 8: rhIL1β-treated group+compound 5C-containing oily emulsion dispersion-treated group (4EG)
(§5) 9: rhIL1β-treated group+compound 5D-containing oily emulsion dispersion-treated group (5EG)
Amount adhered and percent inhibition of adhesion of human normal lymphocytes as measured from fluorescence intensity are shown in Table 5 below.

The test system of experiment [3] is HL-60 cancer cells adhering to vascular endothelial cells of the normal human umbilical cord. Briefly: inhibition of adhesion of HL-60 cancer cells to rhIL1β-stimulated vascular endothelial cells, oily emulsion. To be noted: 20 μg/ml equivalent; for Amount of HL-60 cancer cells adhered (fluorescence intensity): rhIL1β 200 U/ml, 485 nm/535 nm. The method, then:
as §1
Vascular endothelial cells of the normal human umbilical cord grown to confluence were stimulated in 24-well plates with 200 U/ml of rhIL1β at 37° C. for 4 hours. After removal of the supernatant by suction, oily emulsions each prepared from a compound of the invention in an amount of 20 μg/ml equivalent were added except for the rhIL1β-untreated group (sample 1) and the treated groups (samples 2 and 3). The mixtures were then allowed to react at room temperature for 30 min. Subsequently, promyelocytic leukemia cell line HL-60 with 2',7'-bis(carboxyethyl)-5,6-carboxyfluorescene acetoxymethyl ester fluorescent dye enclosed was added at a level of 1×10^6 cells per well followed by centrifugal operation at 100 rpm for 20 min. Each well was washed three times followed by addition of 0.5 ml of 0.5% Triton X-100 and stirring. The contents were divided into 100 μl portions in 96-well plates and measurement was made on a Baxter fluorometer at 485 nm/535 nm.
4: rhIL1β-treated group+2→3 sialyl Lewis X (natural type)-containing oily emulsion dispersion-treated group
5: rhlL1β-treated group+compound 5E-containing oily emulsion dispersion-treated group (OEG)
as §2, §3, §4, §5
% inhibition of adhesion=100-[(fluorescence intensity for rhIL1β-treated group+compound-free or a compound-containing oily emulsion dispersion-treated group)-(fluorescence intensity for rhIL1β-untreated group)/(fluorescence intensity for rhIL1β-treated group-fluorescence intensity for rhIL1β-untreatedgroup)]×100

As to `CCCCCCCCCCCCC/C=C/[C@@H](O)[C@H](CO[C@@H]1O[C@H](CO)[C@@H](O[C@@H]2O[C@H](CO)[C@H](O)[C@H](O[C@@H]3O[C@H](CO)[C@@H](O[C@@H]4O[C@H](CO)[C@H](O)[C@H](O[C@]5(C(=O)O)C[C@H](O)[C@@H](NC(C)=O)[C@H]([C@H](O)[C@H](O)CO)O5)[C@H]4O)[C@H](O[C@@H]4O[C@@H](C)[C@@H](O)[C@@H](O)[C@@H]4O)[C@H]3NC(C)=O)[C@H]2O)[C@H](O)[C@H]1O)NC(=O)CCCCCCCCCCCCCCCCC` [2→3 sialyl Le^x, reference compound], the “Amount of Colo 201 cells adhered (fluorescence intensity)” value in experiment [1] amounted to 448512. The “Amount adhered (fluorescence intensity)” value in experiment [2] is given as 9320. The “Amount of HL-60 cancer cells adhered (fluorescence intensity)” value in experiment [3] was 16869.
Regarding `CCCCCCCCCCCCCCC(CCCCCCCCCCCCCC)C(=O)Nc1ccc(CO[C@@H]2O[C@H](CO)[C@@H](O[C@@H]3O[C@H](CO)[C@H](O)[C@H](O[C@]4(C(=O)O)C[C@H](O)[C@@H](NC(C)=O)[C@H]([C@H](O)[C@H](O)CO)O4)[C@H]3O)[C@H](O[C@@H]3O[C@@H](C)[C@@H](O)[C@@H](O)[C@@H]3O)[C@H]2O)cc1` [Compound 5E, para-(2-tetradecylhexadecanoyl)-aminobenzyl-O-(5-acetamido-3,5-dideoxy-D-glycero-α-D-galacto-2-nonulopyranosylonic acid)-(2→3)-O-β-galactopyranosyl-(1→4)-[O-α-L-fucopyranosyl-(1→3)-β-D-glucopyranoside], reference compound], the “Amount of Colo 201 cells adhered (fluorescence intensity)” value in experiment [1] was determined as 595253. The results for the “% Inhibition of adhesion” value in experiment [1] (Colo 201 cells), in experiment [2] and in experiment [3] (HL-60 cells) were 9.68%, 46.6% and 35.6%, respectively. Moreover, the “Amount adhered (fluorescence intensity)” value in experiment [2] came to 14781. Also, in experiment [3], the “Amount of HL-60 cancer cells adhered (fluorescence intensity)” value worked out at 24307.
